Data: patent US20250041315A1, “LEVONORGESTREL BUTANOATE FORMULATION AND METHODS RELATING THERETO” (The USA, as Represented by the Secretary, Department of …, priority 2021, published 2025)

How the values were obtained:
[1] = injections at 3-month intervals; cited from earlier work
[2] = Effect of gamma irradiation sterilization on spray dried LNGB particles (colour, qualitative HPLC); format: physicochemical
Procedure: In this comparative example, a sample of LNGB particles was prepared using a gamma irradiation step to sterilize spray dried particles. The LNGB particles were obtained by spray drying and then were subjected to gamma irradiation to evaluate the effect of irradiation on the particles. […] Qualitative HPLC was performed to compare the peak profiles of the LNGB particles before and after irradiation. FIGS. 2-5 show HPLC traces of the sample before (FIG. 2) and after (FIGS. 3-5) irradiation. Irradiated samples generated three major peaks, A, D, and E, at >0.15%, as well as a small peak, C, at ˜0.07%. […] In N2- and Ar-purged irradiated samples (FIGS. 4 and 5, respectively), peaks F and G were not resolved from other peaks (either degradation products or gradient artifacts).

Structure (SMILES) | typical failure rate [1] [%] | major impurity peaks A, D, and E (HPLC) after irradiation ([2]; irradiated samples) [%] | small impurity peak C (HPLC) after irradiation ([2]; irradiated samples) [%] | colour of particles after gamma irradiation ([2]; spray dried particles, gamma irradiated, initial particles white/translucent)
CC(=O)O[C@]1(C(C)=O)CC[C@H]2[C@@H]3C[C@H](C)C4=CC(=O)CC[C@]4(C)[C@H]3CC[C@@]21C [DMPA, Depomedroxyprogesterone Acetate] | 4 | – | – | –
C#C[C@]1(OC(=O)CCC)CC[C@H]2[C@@H]3CCC4=CC(=O)CC[C@@H]4[C@H]3CC[C@@]21CC [LNGB particles, Levonorgestrel butanoate] | – | > 0.15 | ~0.07 | yellow color
